What was measured:
[1] = test system: Stop-POST5 complex (RFC-dependent termination); experiment: smTIRF assay of RFC-dependent peptide and tRNA release; format: biochemical, shrimp (Artemia salina)
Experimental: Immobilization of ribosome Stop-POST 5 complexes. PEGylated flow chambers were incubated in 0.5 mg/ml streptavidin for 5 mins and washed with Buffer 4. Biotinylated Stop-POST5 containing FK(atto647)VRQ-tRNA^Gln (Cy3) in the P-site, was formed at room temperature by incubating Stop-POST4, eEF1A, GTP, and Gln-(Cy3)tRNA^Gln for 5 mins and then injected into the streptavidin-coated slide chamber. After a 5 min incubation, excess unbound ribosome was flowed out. Then eRF1/eRF3±TRIDs was injected dynamically at 3 sec while recording. The injection dead time was subtracted for each particle.
Single-molecule fluorescence imaging. All sm-TIRF studies were carried out at 24° C. All dilutions, complex formation, and single-molecule imaging were carried out in Buffer 4 with an added enzymatic oxygen scavenging system of 2 mM protocatechuic acid (PCA), 50 nM protocatechunate 3,4 dioxygenase (PCD, Sigma Aldrich), 1 mM cyclooctatetraene (COT, Sigma Aldrich), 1 mM 4-nitrobenzyl alcohol (NBA, Sigma Aldrich), and 1.5 mM 6-hydroxy-2,5,7,8-tetramethyl-chromane-2-carboxylic acid (Trolox, Sigma-Aldrich) (Flis et al., Cell reports, 25(10), 2676-2688 (2018).
Image stacks were recorded at 100 ms frame rate on a custom-built objective-type total internal reflection fluorescence (TIRF) microscope based on a commercial inverted microscope (Eclipse Ti-E, Nikon) and capable of performing alternating-laser excitation (ALEX) between 532 nm and 640 nm laser beams using an acousto-optic tunable filter (AOTF, Chen et al., 2011). For the time-lapse experiment, timing of the movies, programmed into NIS-Elements (Nikon) microscope software, were recorded by illuminating the sample for 50-20 frames at 10 frames per s with 15 s or […] intervening dark intervals. Video recording was started and then eRF1/eRF3±TRIDs was injected from a triggered syringe pump at 3 sec while recording. The injection dead time was subtracted for each particle. Triggering of the shutters, AOTF, and pump was synchronized using LabView scripts driven from the camera exposure signal.
Data analysis. Collected movies were analyzed by a custom-made software program developed as an ImageJ plugin (Chen et al., Mol. Cell, 42, 367-377 (2011)), and further analyzed using Python. Distributions of peptide and tRNA dissociation times were fit to eq (5), using maximum likelihood estimation (Bevington and Robinson. Data Reduction and Error Analysis for the Physical Sciences. New York: McGraw-Hill, (2002); Woody et al., Biophys. J. 111, 273-282 (2016)), where P is the probability density.
smTIRF results using Atto(pep)-Cy-Stop-POST5 attached to surface-immobilized ribosomes. Although the distance between the two fluorophores is not close enough to produce FRET, fluorescent pairs could be identified by co-localization on the slide under alternating 532 nm and 640 nm total internal reflection fluorescence (TIRF) illumination. This permits near-simultaneous monitoring of the dynamics of peptide and P-site tRNA release from the Stop-POST5 complex following RFC binding.
To reduce photobleaching of each fluorophore, time-lapse movies were recorded with bursts of 20 or 50 frames at 100 ms frame intervals interleaved by 20 s intervals with the lasers shuttered. Total recording time for each trial was 20 min.
FIG. 8A and FIG. 8C show typical frame by frame recordings indicating a loss of signal for both labeled peptide and labeled tRNA after the addition of the RFC to Atto(pep)-Cy(tRNA)-Stop-POST5. Either peptide (a) or tRNA (b) can dissociate first, in approximately equal proportions. Photobleaching of Cy3-labeled tRNA and Atto647-labeled peptide in the absence of eRF1/eRF3 was much slower (FIG. 8E and FIG. 8F). Under the time lapse illumination employed, mean lifetimes for Atto647-peptide and Cy3-tRNA at 0.32 μM eRF1 and 2 μM eRF3 were each 2.45 min. […]

[2] = test system: Atto(pep)-Stop-POST5 (RFC-dependent termination); experiment: Plate reader fluorescence anisotropy assay of pentapeptide release; format: biochemical, shrimp (Artemia salina); conditions: added ataluren 200-1,000 μM
Experimental: Plate reader assays were run in a Tecan F200® 96-well plate reader (Greiner® black, non-binding, chimney flat) equipped with 640 nm excitation and 700 nm polarization filters using 96-well plates. Atto(pep)-Stop-POST5 in Buffer 4 (0.1 μM, 80 μl) containing GTP (1 mM) was added to plate wells±ataluren at 25° C. eRF1 and eRF3 aliquots stored at −80° C. were thawed for 15 s at 37° C. and added directly to a premade ice-cold GTP (1 mM)±ataluren solution in Buffer 4. The resulting release factor solution was incubated at 25° C. for 1 min, and then added quickly in 80 μL portions to the Atto(pep)-Stop-POST5 containing wells with a multichannel pipette to the Atto(pep)-Stop-Posts wells. The final concentrations were: eRF1, 0.025-0.4 μM; eRF3, 0.8 μM; Atto(pep)-Stop-Posts, 0.05 μM. Fluorescence anisotropy decay graphs were fit with GraphPad Prism, using the one phase decay model to obtain peptide dissociation rates.
Ensemble fluorescence anisotropy results using Atto(pep)-Stop-POST5. The fluorescence anisotropy of the pentapeptidyl moiety of Atto(pep)-Stop-POST5 was quite high (0.22), and decreased following addition of RFC, providing a convenient measure of the rate of pentapeptide release from the ribosome. […] Each such time dependency could be fit to a single exponential, giving the collected rate constants presented in FIG. 9G, in which the rate dependence as a function of RFC concentration was measured at 0, 200, 500, and 1,000 μM ataluren. In the absence of ataluren, EC50 (0.029±0.002 μM) and Vmax (0.31±0.02) values were obtained for pentapeptide release similar to those measured by smTIRF. In addition, as with the smTIRF results, Vmax values were unaffected by added ataluren but EC50 values increased, reaching ˜0.06 μM at 1000 μM.

[3] = test system: POST5 complex (eRF1 & 3 peptide release); experiment: Fluorometer anisotropy measurement of POST5 complex Stop IRES-Lys*; format: biochemical; conditions: 0.1 μM POST5, eRF1 0.1 μM, eRF3 0.2 μM, GTP 2.0 mM, 25° C.
Experimental: Fluorometer measurements of POST5 complex Stop IRES-Lys* included the following treatment methods and components:
POST5 complex was treated with ternary complexes of release factor 1 and 3 and GTP. Lys was labeled with the fluorescent label Atto647. Conditions for the assay were as follows: at 25° C., Buffer condition included 0.1 μM POST 5. Release factor 1 and 3 (eRF1 & 3) POST 5 condition included 0.1 μM POST5; eRF1 at 0.1 μM; eRF3 at 0.2 μM; and GTP at 2 mM. Release factor 1 and 3 (eRF1 & 3) POST 5 and ataluren condition included 0.1 μM POST5; eRF1 at 0.1 μM; eRF3 at 0.2 μM; GTP at 2.0 mM; and Ataluren at […].

[4] = 0.081 μM RFC, 1000 μM ataluren added 4-25 s later, 24° C.

O=C(O)c1cccc(-c2noc(-c3ccccc3F)n2)c1 [Ataluren]
mode of inhibition of RFC [1]: apparent competitive inhibitor
effect on CC value of peptide and tRNA lifetimes ([1]; 0.032 μM RFC and 1 mM ataluren, FIG. 10C): did not change the CC value
rate constant for elimination of ataluren's inhibitory effect after RFC addition, peptide [1, 4]: 9.6 ± 2.6 min⁻¹
rate constant for elimination of ataluren's inhibitory effect after RFC addition, tRNA [1, 4]: 10.8 ± 3.6 min⁻¹
effect on Vmax values at high RFC concentration ([1]; 200, 500, 1000 μM ataluren): little affected
KA, inhibition of pentapeptide release rate constants ([1]; measured by both smTIRF and fluorescence anisotropy, eRF1 32 nM, FIG. 9H): 250 ± 20 µM
KA, inhibition of tRNA release ([1]; smTIRF): 180 ± 10 µM
effects on the rates of peptide and tRNA release ([1]; steps after tRNA-peptide bond cleavage): no direct effects
effect on Vmax values [2]: unaffected
effect on peptide release (fluorescence anisotropy change) [3]: inhibited peptide release
